The values that follow come from patent US9340574B2, “Inhibitors of protein tyrosine phosphatases” (Indiana University Research and Technology Corporation, priority 2012, dated 2016).

Test [1] concerns the target LYP (Homo sapiens (Human), UniProt Q9Y2R2). As to the kind of experiment: pNPP hydrolysis enzyme assay, LYP. The format is biochemical. Here is the method:
(§1) Enzyme kinetic assay. PTP activity was assayed using p-nitrophenyl phosphate (pNPP) as a substrate in 3,3-dimethylglutarate buffer (50 mM 3,3-dimethylglutarate, pH 7.0, 1 mM EDTA, 150 mM NaCl, 2 mM DTT, 0.1 mg/mL BSA) at 25° C. The assays were performed in 96-well plates. Normally, to determine the IC50 values, the reaction was initiated by the addition of enzyme (final concentration at 10 nM) to a reaction mixture (0.2 mL) containing 2 mM (Km for the substrate) pNPP with various concentrations of inhibitors. The reaction rate was measured using a SpectraMax Plus 384 Microplate Spectrophotometer (Molecular Devices). To determine the mode of inhibition, the reactions were initiated by the addition of PTP-MEG2 to the reaction mixtures (0.2 mL) containing various concentrations of pNPP with different concentrations of the inhibitor 7. Data were fitted using SigmaPlot Enzyme Kinetics Module (Systat Software, Inc.).

Test [2] has as its system 3T3-L1 differentiated adipocytes. As to the kind of experiment: Insulin signaling in 3T3-L1 differentiated adipocytes. The format is cell-based. Conditions: 3T3-L1 adipocytes, 1 hour pretreatment before insulin. Here is the method: Cell lysate (20 μg protein) was subjected to 10% SDS-PAGE and probed with phospho-Akt, phospho-IR (Y1162/1163) or Akt antibody, respectively. […] Cell lysate (20 μg protein) was subjected to 10% SDS-PAGE and probed with phospho-IR(Y1162/1163), phospho-Akt (pS473) or total Akt antibody, respectively. […] Cell lysate (20 μg protein) or insulin receptor immunoprecipitation beads were subjected to 10% SDS-PAGE and probed with phospho-Akt, Akt, insulin receptor beta or phospho-tyrosine antibody (4G10), respectively. The non-specific band from insulin receptor immunoprecipitates served as a loading control for insulin receptor and phospho-insulin receptor.
Western blot analysis. Cells were homogenized in the lysis buffer (50 mM Hepes, pH 7.5, 150 mM NaCl, 10% Glycerol, 1% Triton X-100, 1.5 mM MgCl2, 1 mM EGTA, 10 μM Sodium Pyrophosphate, 100 mM sodium fluoride and freshly added 100 μM sodium vanadate, 1 mM PMSF, 10 μg/ml Aprotinin, and 10 μg/mL Leupeptin). Protein extracts were resolved on an SDS-PAGE gel and transferred to nitrocellulose membrane. […] Protein signals were detected by incubation with HRP-conjugated secondary antibodies, followed by ECL detection reagent (Pierce). Western blots were scanned and quantified using the Quantity One software (Bio-Rad).

Test [3] deals with SHP1 (Homo sapiens (Human), UniProt P29350). The test is described as follows: pNPP hydrolysis enzyme assay, SHP1. Format: biochemical. Here is the method: as §1
SHP1, sequence (P29350 whole entry): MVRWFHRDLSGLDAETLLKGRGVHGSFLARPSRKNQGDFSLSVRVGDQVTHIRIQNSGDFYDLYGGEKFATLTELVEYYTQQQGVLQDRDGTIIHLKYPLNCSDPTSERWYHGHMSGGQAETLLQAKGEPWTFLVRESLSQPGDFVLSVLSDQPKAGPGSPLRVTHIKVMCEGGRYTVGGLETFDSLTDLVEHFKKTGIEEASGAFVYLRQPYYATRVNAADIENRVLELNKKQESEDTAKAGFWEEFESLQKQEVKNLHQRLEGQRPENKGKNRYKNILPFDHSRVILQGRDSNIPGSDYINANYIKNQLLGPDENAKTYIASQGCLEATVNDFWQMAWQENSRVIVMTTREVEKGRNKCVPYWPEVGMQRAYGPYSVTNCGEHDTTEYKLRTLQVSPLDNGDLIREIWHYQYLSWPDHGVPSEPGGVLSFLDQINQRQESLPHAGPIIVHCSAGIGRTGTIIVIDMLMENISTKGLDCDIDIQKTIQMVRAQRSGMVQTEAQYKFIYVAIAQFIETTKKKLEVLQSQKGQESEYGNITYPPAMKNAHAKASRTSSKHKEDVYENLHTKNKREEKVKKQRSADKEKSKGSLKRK
Test [4] concerns diet-induced obese C57BL/6 mice. As to the kind of experiment: Insulin tolerance test in diet-induced obese mice. Conditions: 5 mg/kg i.p. twice a day. Format: in vivo, mouse. The method, then:
(§2) C57BL/6J mice were fed a high-fat diet for 10 weeks before Compound 7 or vehicle was injected intraperitoneally twice a day at a dose of 5 mg/kg body weight. FIG. 5A depicts insulin tolerance tests (ITT) performed on Day 7 by injecting intraperitoneally a bolus of 0.75 unit/kg of human regular insulin. […] FIG. 5C depicts glucose tolerance tests (GTT) carried out on Day 9 after a bolus of 1 g/kg glucose was injected intraperitoneally. […] FIG. 5E depicts pyruvate tolerance tests (PTT) performed on Day 12 after an injection of 2 g/kg pyruvate solution. […] At the end of 2-week injections of Compound 7, animals were fasted overnight and stimulated with a bolus of 1 unit of human regular insulin or saline via vena cava. Three minutes later, liver, skeletal muscle, and white adipose tissue (WAT) were collected sequentially for insulin signaling analysis. FIG. 5G depicts the phosphorylation of Tyr1162/1163 in insulin receptor (IR) and Ser473 phosphorylation in Akt kinases and the corresponding proteins in the liver, skeletal muscle, and white adipose tissue (WAT) were analyzed by immunoblots.
(§3) To this end, we intraperitoneally injected Compound 7 into diet-induced obese C57BL/6 mice at a dose of 5 mg/kg twice a day. […] After 7 days of injections, we performed insulin tolerance tests to measure insulin sensitivity in vehicle and Compound 7 treated mice.

Test [5] addresses PTP1B (Homo sapiens (Human), UniProt P18031). The test is described as follows: pNPP hydrolysis enzyme assay, PTP1B. Format: biochemical. The method, then:
as §1

Test [6] has as its target PTPμ (Homo sapiens (Human), UniProt P28827). As to the kind of experiment: pNPP hydrolysis enzyme assay, PTPμ. Format: biochemical. Here is the method: as §1
Test [7] deals with PTPγ (Homo sapiens (Human), UniProt P23470). As to the kind of experiment: pNPP hydrolysis enzyme assay, PTPγ. Format: biochemical. The method, then: as §1
In test [8] the test system is insulin signaling in metabolic tissues of diet-induced obese mice. As to the kind of experiment: Insulin signaling in liver, skeletal muscle and white adipose tissue of diet-induced obese mice (immunoblot). Format: in vivo, mouse. Conditions: skeletal muscle, white adipose tissue, 2-week injections, insulin bolus. An excerpt:
To investigate the underlying mechanisms responsible for the improved insulin sensitivity in Compound 7 treated diet-induced obese mice, we analyzed key insulin signaling events in metabolically active tissues. Phosphorylation of Tyr1162/1163 residues in IR was stimulated 2-3 fold higher in the liver, skeletal muscle, and white adipose tissue in Compound 7 treated mice than that in control mice (FIGS. 5G & H). […] These biochemical data are consistent with the animal phenotype that Compound 7 can effectively improve insulin sensitivity in diet-induced obese mice. Our finding that chemical inhibition of PTP-MEG2 augments insulin signaling, insulin sensitivity and glucose homeostasis in insulin resistant mice is consistent with the observation that silencing of PTP-MEG2 in the livers of db/db mice results in a reversal of insulin resistance and hyperglycemia (Cho, et al., Cell Metab. 2006, 3, 367-378). Moreover, our in vivo data also serve as proof-of-concept and support the notion that specific inhibitors of PTP-MEG2 may be effective anti-diabetes agents.
Background: Immunoblotting shows a protein as a band on a membrane.

In test [9] the target is CD45 (Homo sapiens (Human), UniProt P08575). As to the kind of experiment: pNPP hydrolysis enzyme assay, CD45. The format is biochemical. The method, then:
as §1

For test [10], the target named is PTPβ (Homo sapiens, UniProt P23467). The test is described as follows: pNPP hydrolysis enzyme assay, PTPβ. Format: biochemical. Here is the method:
as §1

Test [11] has as its system diet-induced obese C57BL/6 mice. The test is described as follows: Pyruvate tolerance test in diet-induced obese mice. The format is in vivo, mouse. Conditions: 5 mg/kg i.p. twice a day. The method, then: as §2, §3
Test [12] concerns the target PTP-PEST (Homo sapiens (Human), UniProt Q05209). The test is described as follows: pNPP hydrolysis enzyme assay, PTP-PEST. Format: biochemical. Here is the method:
as §1

The structures appear in SMILES notation.

PTP1B, sequence (P18031 whole entry, species assumed): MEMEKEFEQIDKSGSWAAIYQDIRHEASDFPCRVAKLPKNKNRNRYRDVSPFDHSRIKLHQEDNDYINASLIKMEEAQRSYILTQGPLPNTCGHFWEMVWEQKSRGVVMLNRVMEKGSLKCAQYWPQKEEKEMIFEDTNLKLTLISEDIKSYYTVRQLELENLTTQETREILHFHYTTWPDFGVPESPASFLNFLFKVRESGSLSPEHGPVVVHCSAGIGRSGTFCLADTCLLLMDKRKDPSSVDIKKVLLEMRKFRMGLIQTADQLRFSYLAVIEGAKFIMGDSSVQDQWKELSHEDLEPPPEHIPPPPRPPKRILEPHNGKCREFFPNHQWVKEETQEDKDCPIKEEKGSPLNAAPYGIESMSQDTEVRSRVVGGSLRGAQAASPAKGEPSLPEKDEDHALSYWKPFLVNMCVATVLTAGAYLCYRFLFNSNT
LYP, sequence (Q9Y2R2 whole entry, species assumed): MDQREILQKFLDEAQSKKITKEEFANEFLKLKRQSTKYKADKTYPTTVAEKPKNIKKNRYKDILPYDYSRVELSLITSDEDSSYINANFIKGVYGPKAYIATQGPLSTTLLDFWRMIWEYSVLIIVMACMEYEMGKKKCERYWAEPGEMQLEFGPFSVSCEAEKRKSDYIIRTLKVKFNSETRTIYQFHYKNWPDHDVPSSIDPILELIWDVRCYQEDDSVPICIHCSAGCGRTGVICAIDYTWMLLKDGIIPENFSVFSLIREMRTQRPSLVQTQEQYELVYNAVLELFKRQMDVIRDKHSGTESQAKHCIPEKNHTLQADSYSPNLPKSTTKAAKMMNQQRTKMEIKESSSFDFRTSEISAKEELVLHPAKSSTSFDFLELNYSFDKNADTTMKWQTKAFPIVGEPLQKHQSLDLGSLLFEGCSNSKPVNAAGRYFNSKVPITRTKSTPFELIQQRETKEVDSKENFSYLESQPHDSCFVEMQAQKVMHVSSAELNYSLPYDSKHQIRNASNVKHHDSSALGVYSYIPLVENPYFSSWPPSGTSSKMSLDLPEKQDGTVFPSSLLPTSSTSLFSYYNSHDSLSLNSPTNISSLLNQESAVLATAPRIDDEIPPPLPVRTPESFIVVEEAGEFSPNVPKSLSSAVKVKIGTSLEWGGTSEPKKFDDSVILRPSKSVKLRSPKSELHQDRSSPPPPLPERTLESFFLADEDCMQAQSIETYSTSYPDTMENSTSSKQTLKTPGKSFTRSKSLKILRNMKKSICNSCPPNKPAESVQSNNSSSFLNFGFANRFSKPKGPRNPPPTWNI
CD45, sequence (P08575 26-1306, species assumed): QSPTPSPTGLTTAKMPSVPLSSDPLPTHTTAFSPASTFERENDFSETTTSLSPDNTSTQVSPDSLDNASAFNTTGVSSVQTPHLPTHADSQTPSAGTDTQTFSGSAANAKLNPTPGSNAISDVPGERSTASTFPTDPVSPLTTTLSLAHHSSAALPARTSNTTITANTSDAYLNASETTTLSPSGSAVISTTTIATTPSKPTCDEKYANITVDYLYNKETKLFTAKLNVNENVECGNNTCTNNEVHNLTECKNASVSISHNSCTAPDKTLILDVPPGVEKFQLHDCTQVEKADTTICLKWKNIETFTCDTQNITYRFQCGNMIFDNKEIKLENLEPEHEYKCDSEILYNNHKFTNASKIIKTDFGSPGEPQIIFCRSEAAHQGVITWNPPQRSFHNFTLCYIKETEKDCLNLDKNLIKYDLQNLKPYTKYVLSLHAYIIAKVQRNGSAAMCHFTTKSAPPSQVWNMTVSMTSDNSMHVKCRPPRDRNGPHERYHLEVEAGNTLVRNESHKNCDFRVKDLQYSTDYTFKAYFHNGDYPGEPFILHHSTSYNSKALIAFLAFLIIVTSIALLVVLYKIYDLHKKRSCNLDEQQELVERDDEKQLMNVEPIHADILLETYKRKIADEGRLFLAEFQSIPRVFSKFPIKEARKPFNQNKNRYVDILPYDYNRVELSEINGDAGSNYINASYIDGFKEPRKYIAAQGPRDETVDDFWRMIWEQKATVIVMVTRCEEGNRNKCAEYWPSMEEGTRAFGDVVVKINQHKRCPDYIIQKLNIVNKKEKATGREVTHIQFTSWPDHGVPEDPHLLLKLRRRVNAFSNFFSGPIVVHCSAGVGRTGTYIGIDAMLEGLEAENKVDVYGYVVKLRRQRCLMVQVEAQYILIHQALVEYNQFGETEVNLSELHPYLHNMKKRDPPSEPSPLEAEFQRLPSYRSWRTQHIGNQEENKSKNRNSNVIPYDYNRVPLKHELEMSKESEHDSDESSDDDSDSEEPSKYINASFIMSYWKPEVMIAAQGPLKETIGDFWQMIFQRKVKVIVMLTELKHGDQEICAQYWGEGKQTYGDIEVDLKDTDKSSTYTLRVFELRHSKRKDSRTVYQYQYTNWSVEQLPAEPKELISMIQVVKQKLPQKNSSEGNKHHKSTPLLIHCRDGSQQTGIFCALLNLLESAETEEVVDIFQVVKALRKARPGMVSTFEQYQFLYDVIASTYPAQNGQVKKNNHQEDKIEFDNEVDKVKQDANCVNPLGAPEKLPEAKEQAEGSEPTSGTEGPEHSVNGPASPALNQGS
PTPβ, sequence (P23467 23-1997 limits assumed): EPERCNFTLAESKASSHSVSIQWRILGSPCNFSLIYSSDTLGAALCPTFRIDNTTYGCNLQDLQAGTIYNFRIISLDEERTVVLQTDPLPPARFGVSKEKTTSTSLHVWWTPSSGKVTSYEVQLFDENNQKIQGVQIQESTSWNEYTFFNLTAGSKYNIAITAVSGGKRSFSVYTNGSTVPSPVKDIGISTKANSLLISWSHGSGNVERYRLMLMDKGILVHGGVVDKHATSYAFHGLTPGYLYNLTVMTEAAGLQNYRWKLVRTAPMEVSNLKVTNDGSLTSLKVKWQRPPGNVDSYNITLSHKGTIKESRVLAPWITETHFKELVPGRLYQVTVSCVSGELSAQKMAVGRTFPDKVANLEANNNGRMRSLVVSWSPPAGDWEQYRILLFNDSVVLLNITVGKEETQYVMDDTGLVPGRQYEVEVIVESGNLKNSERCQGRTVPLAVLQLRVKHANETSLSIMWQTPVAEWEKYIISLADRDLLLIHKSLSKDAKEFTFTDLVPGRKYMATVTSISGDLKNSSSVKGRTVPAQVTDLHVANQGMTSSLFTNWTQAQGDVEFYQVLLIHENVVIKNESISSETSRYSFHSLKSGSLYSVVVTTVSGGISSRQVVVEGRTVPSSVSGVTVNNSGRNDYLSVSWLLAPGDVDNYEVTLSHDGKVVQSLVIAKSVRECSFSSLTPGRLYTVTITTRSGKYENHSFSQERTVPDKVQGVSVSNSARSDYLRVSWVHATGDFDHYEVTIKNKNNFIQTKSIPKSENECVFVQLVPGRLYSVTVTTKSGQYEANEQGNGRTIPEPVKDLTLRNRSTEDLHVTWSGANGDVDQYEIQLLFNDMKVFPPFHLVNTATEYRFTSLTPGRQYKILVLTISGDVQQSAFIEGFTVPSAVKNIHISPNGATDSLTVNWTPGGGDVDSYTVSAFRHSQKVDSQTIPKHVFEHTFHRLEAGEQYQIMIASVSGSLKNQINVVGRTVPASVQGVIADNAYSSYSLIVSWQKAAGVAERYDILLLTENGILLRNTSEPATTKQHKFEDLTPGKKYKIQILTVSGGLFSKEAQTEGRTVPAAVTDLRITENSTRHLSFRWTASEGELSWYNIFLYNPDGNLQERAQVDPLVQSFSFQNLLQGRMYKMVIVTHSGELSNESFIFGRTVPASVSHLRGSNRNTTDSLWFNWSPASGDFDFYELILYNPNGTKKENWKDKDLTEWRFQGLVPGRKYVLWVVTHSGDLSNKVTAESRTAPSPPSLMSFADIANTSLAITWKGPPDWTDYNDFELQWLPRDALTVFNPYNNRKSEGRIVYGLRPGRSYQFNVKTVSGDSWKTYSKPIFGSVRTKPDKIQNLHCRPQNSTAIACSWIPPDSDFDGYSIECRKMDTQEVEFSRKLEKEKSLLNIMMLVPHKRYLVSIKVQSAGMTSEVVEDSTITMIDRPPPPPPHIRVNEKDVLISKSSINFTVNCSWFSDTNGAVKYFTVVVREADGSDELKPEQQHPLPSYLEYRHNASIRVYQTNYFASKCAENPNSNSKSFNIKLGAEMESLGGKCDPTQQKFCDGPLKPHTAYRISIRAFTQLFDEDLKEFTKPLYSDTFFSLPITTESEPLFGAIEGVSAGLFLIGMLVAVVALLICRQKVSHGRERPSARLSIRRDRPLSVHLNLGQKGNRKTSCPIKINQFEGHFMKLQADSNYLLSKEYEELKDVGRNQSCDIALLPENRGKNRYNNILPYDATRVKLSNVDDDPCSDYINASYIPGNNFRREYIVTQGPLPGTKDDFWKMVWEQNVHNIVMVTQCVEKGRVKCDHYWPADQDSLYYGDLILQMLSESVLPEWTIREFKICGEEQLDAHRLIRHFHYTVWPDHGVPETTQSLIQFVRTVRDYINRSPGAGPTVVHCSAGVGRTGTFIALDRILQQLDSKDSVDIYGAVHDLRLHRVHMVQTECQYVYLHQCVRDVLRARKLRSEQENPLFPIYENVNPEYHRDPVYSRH

As to `COc1cc(CC(=O)NCC(NC(=O)C(CCCNC(=O)c2cccc(I)c2)NC(=O)C(Cc2ccc(C(F)(F)P(=O)(O)O)cc2)NC(=O)c2ccc(C)c(Br)c2)C(N)=O)ccc1O` (stereo not shown) [Compound 7], the IC50 in test [1] was > 10000 nM; in [3] it was > 10000 nM; in test [5] (pNPP substrate) it was 860 nM; in [6] it was > 10000 nM; in test [7], > 10000 nM; in test [9], > 10000 nM. For the same compound, the IC50 in test [10] and in test [12] was > 10000 nM in each case. Also, the “insulin signaling (phospho-Akt, phospho-IR)” value in test [2] is recorded as “augmented insulin signaling”. Besides, the “insulin sensitivity in insulin tolerance test” value in test [4] (Day 7, at 15 and 60 minutes after 0.75 unit insulin) is given as “significantly improved insulin sensitivity”. In addition, in [4] (Day 7, vs vehicle), the “improvement in insulin tolerance (AUC)” value is recorded as 14%. Moreover, the “selectivity for PTP-MEG2 over PTP1B” value in [5] (ratio of IC50 values) is reported as “more than 10 fold”. Moreover, the “increase of Akt (Ser473) phosphorylation” value in [8] is 40-60%. Besides, in test [8], the “phosphorylation of Tyr1162/1163 in IR, higher than control mice” value is reported as 2-3 fold. For the same compound, in [11] (Day 12), the “hepatic gluconeogenesis in pyruvate tolerance test” value was “significant suppression of hepatic gluconeogenesis”. In test [11] (Day 12, vs vehicle), the “better pyruvate tolerance (AUC)” value is 25%.

As usually defined, the IC50 is the concentration needed to halve the response being measured. A higher IC50 goes with lower potency.
